In US10822367B2, “Pharmaceutical composition for preventing or treating dementia and improving cognitive function, comprising glasswort extract” (priority 2017, dated 2020):
≈ marks a conversion by molar mass, not a printed value.

Key:
[1] = target: acetylcholine esterase (AChE) (Homo sapiens, UniProt P22303); experiment: Acetylcholine esterase inhibitory activity (partially corrected Ellman's coupled enzyme assay); format: biochemical
Source text: It has been reported that as the concentration of acetylcholine esterase (AChE) increases in the cerebral blood vessels, cholinergic neurotransmitters for neurons are deficient in neurons, causing memory and cognitive impairment. Therefore, the measurement of AChE inhibitory activity can be used as a tool for the development of a drug or health functional raw material for prevention and treatment of dementia or enhancement of cognitive ability. In the present invention, the AChE inhibitory activity of a desalted Salicornia europaea extract, a desalted Salicornia europaea enzymatic hydrolysis extract, or purified fractions obtained from a desalted Salicornia europaea extract were measured, and the measurement was conducted by partially correcting Ellman's coupled enzyme assay. That is, 170 μL of 100 mM phosphate buffer (pH 8), […] of 2 mM dithiobisnitrobenzoic acid (DTNB), and 20 μL of an extraction sample were added to on a 96-well microplate. […] The enzymatic reaction solution was incubated at 37° C. for 10 minutes, and then the absorbance was measured by a UV-VIS microreader at 410 nm. The AChE inhibitory activity was calculated as below by comparison between the absorbance (Ac) of a control group not containing a substrate and a sample and the absorbance (As) of a test group. *AChE inhibitory activity (%)=[1−(As/Ac)]×100 • Ac: absorbance of a control group, • As: absorbance of a sample group.

[2] = tested on: BV2 microglia; experiment: Cytotoxicity test through MTT assay in LPS-stimulated BV2 microglia; settings: acanthoside B 1, 5, 10 μg/mL, alone or together with LPS (FIG. 10a)
Experimental: (§1) A test was conducted to investigate effects of the neuroinflammation inducing substance LPS (200 mg/mL) and the active ingredient acanthoside B of PM-EE on brain glia cells in LPS-stimulated brain glia cells BV2 microglia. The cells were treated with each material at different concentrations (1, 5, 10 μg/mL), and a cytotoxicity test was conducted through MTT analysis. […] Therefore, in order to analyze the neuroinflammation inhibitory ability of acanthoside B at concentrations (1, 5, 100 μg/mL) without cytotoxicity, as for whether the nitric oxide (NO) produced in LPS (200 ng/ml)-stimulated mouse BV-2 microglia was inhibited by acanthoside B, the content of intracellular LPS-induced nitric oxide (NO) was measured through NO assay using Griess reagent.

[3] = tested on: forgetfulness animal models using scopolamine; experiment: Passive avoidance test; format: in vivo, mice
Experimental: Mice were placed in the bright section with shining light and allowed to go over for 20 seconds. Subsequently, the guillotine door was opened and the mouse was allowed to enter into the dark section. […] The time from when the guillotine door was opened to when the mouse entered the dark section was measured. Once the mouse entered the dark section, the guillotine door was closed, and an electric shock of 0.25 mA flows through a grid bottom for 3 seconds, and the mouse remembered this electrical action. The present test was conducted 24 hours after the learning test. […] Here, the longer the time taken, the better the cognitive ability and memory in passive avoidance.

[4] = tested on: LPS-stimulated mouse BV-2 microglia; experiment: LPS-induced nitric oxide (NO) production, NO assay using Griess reagent; format: cell-based; settings: 1, 5, 100 μg/mL as printed; LPS 200 ng/ml (FIG. 10b)
Experimental: as §1

[5] = tested on: neuroinflammation-related genes (IL-1β, iNOS, COX-2, and TNF-α) in BV2 microglia; experiment: Neuroinflammation gene expression by RT-PCR; format: cell-based, mouse
Experimental: BV2 microglia as neuroglia were treated with LPS and the desalted Salicornia europaea extract (PM-EE) at different concentrations (0-100 μg/mL). After 1 hour, cells were stimulated by LPS, and after 3 hours, an RNA sample was isolated by an RNA extraction buffer. Thereafter, RT-PCR assay was conducted through RNA purification procedure. […] RNA isolated from BV2 microglia was subjected to denaturation at 95° C. for […], 45 times of chain reactions in conditions of 95° C. for 5 seconds and 60° C. for 20 seconds, and annealing to 95° C. at 0.2° C./15 sec, using the primers in Table 4, and then the reaction was stopped. Last, separation by bp size was conducted through agarose gel electrophoresis. Then, bands were checked under UV, and fluorescence was imaged by a camera. As shown in the results in FIG. 9, the expressions of neuroinflammation-related genes (IL-1β, iNOS, COX-2, and TNF-α) were not or slightly observed in a control group treated without LPS.
A test was conducted to investigate an effect of acanthoside B on neuroinflammation factor gene expression. […] After 3 hours, RNA sample was separated by RNA extraction buffer to synthesize cDNA, and RT-PCR was conducted by the same method as in example 6 using the primers in Table 4. […]

[6] = tested on: iNOS and COX-2 protein in LPS-stimulated BV2 microglia; experiment: Neuroinflammation factor protein expression by western blotting; format: cell-based, mouse; settings: acanthoside B; LPS-induced (FIG. 10c)
Experimental: as §1

[7] = Solubility (physical and chemical properties); format: physicochemical
Source text: As a result of the measurement above, the compound S7-L3-3 was identified to be acanthoside B ((2S,3R,4S,5S,6R)-2-[4-[(3S,3aR,6S,6aR)-3-(4-hydroxy-3,5-dimethoxyphenyl)-1,3,3a,4,6,6a-hexahydrofuro [3,4-c]furan-6-yl]-2,6-dimethoxyphenoxy]-6-(hydroxymethyl)oxane-3,4,5-triol) having a molecular weight of 580, which has not been reported in Salicornia europaea until now, and the physical and chemical properties thereof are as follows.

[8] = tested on: forgetfulness animal models using scopolamine; experiment: Y-maze test; format: in vivo
Experimental: A test was conducted to investigate the improvement efficacy of cognitive ability and memory of the desalted Salicornia europaea extract (PM-EE) obtained in example 4-1 above and acanthoside B as an AChE inhibitory and neuroinflammation inhibiting substance isolated from PM-EE in examples 4-2 and 4-3. The Y-maze test was conducted in forgetfulness animal models using scopolamine. In the present test, PM-EE and acanthoside B were dissolved in 10% Tween 80, and then the mixture was orally administered at different concentrations (PM-EE and acanthoside B). […] For the Y-maze test, a test animal was carefully placed in a test apparatus composed of three arms (A, B, C) of a black polyvinyl plastic, each of the arms being 50 cm in length, 10 cm in width, and 20 cm in height, and the folding angle of the three arms being 120 degrees, and the test animal was allowed to freely move for 8 minutes, and then the number of arm entries was recorded. If the test animal sequentially entered the three different arms, 1 point (actual alternation) was given. The alternation behavior was calculated by the following formula. Alternation behavior=(actual alternation)/(maximum alternation)×100 (maximum alternation: the total number of arm entries−2)

Sequence of acetylcholine esterase (AChE) (P22303 32-614): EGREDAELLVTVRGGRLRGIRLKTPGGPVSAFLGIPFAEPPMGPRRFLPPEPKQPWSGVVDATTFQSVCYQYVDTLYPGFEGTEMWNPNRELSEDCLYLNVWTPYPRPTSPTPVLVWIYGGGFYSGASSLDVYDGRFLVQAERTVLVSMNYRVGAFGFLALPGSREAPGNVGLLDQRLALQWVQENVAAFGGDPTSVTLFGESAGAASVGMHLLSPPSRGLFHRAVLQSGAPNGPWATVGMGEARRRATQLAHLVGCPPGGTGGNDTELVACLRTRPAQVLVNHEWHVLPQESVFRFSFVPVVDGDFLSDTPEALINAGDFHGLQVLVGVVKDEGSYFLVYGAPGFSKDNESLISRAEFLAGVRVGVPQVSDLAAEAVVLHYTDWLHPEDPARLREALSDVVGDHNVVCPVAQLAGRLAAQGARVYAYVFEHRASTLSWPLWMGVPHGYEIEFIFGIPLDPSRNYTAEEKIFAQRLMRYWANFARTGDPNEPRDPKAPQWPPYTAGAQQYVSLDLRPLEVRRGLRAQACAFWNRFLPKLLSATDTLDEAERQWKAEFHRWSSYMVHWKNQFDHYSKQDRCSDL

COc1cc([C@H]2OC[C@@H]3[C@@H]2CO[C@H]3c2cc(OC)c(O[C@@H]3O[C@H](CO)[C@@H](O)[C@H](O)[C@H]3O)c(OC)c2)cc(OC)c1O[C@@H]1O[C@H](CO)[C@@H](O)[C@H](O)[C@H]1O [Elutheroside E, eleutheroside E, reference compound]
IC50 (AChE inhibitory activity) [1]: 8.2 ± 0.37 µg/mL (≈ 11 µM)

COc1cc([C@H]2OC[C@H]3[C@@H]2CO[C@@H]3c2cc(OC)c(O[C@@H]3O[C@H](CO)[C@@H](O)[C@H](O)[C@H]3O)c(OC)c2)cc(OC)c1O [acanthoside B, (2S,3R,4S,5S,6R)-2-[4-[(3S,3aR,6S,6aR)-3-(4-hydroxy-3,5-dimethoxyphenyl)-1,3,3a,4,6,6a-hexahydrofuro [3,4-c]furan-6-yl]-2,6-dimethoxyphenoxy]-6-(hydroxymethyl)oxane-3,4,5-triol]
Cell viability (MTT) [2]: not significantly changed
Cognitive ability and memory improvement compared with galantamine (passive avoidance) ([3]; administration at high concentrations): more superior cognitive ability and memory improvement effects compared with the dementia drug, galantamine
Transfer latency time (TLT: retention time) ([3]; scopolamine 1 mg/kg intraperitoneally, different concentrations of sample (FIG. 12a, 12b)): significantly increased
LPS-induced amplified intracellular nitric oxide (NO) [4]: remarkably decreased dependently on the treatment concentration
IC50 ([1]; IC50 (AChE inhibitory activity)): 4.82 µM
inhibition at 10 µg/mL ([1]; read-out: AChE inhibitory activity): 93.2%
LPS-induced amplified neuroinflammation-related genes (IL-1β, iNOS, COX-2, TNF-α) at high concentration ([5]; 10 μg/mL (FIG. 11)): restored to almost the same level as that of a control group before LPS induction
mRNA expression pattern of IL-1β, iNOS, COX-2, and TNF-α (RT-PCR) ([5]; 1, 5, 10 μg/mL, LPS-stimulated (FIG. 11)): reduced dose-dependently
Expressions of iNOS and COX-2 protein (western blotting) [6]: remarkably inhibited
Solubility [7]: soluble in methanol, ethanol, ethyl acetate, ethyl acetate, chloroform, or pyridine
Cognitive ability and memory improvement compared with galantamine (Y-maze) ([8]; galantamine 10 mg/kg as positive control): superior cognitive ability and memory improvement effects to galantamine
Alternation behavior (spatial cognitive ability) ([8]; orally administered at different concentrations in 10% Tween 80, scopolamine model (FIG. 13a, 13b)): restored dose-dependently

CN1[C@@H]2C[C@@H](OC(=O)[C@H](CO)c3ccccc3)C[C@H]1[C@@H]1O[C@@H]12 [scopolamine, reference compound]
Alternation behavior after administration of scopolamine ([8]; normal control group scored 50 points): 45.5 points
